Reference: US20100311642A1, “USE OF V2 RECEPTOR ANTAGONISTS IN COMBINATION WITH VASO PRESSINERGIC AGNOSTS” (Ferring B.V., priority 2007, published 2010)
“Also recorded” adds a separate entry of the source. Blank lines part the entries; values can stand above or below the molecule they belong to. Positions of bridges follow the written chain, without caps; N, C: chain ends. Residues, ends and D or L forms follow the SMILES beside them.

Legend:
sheep model of sepsis = experiment: Sheep model of sepsis (smoke inhalation + Pseudomonas aeruginosa); type: in vivo; conditions: septic sheep, continuous i.v. infusion titrated, 24 hours
Source text: A. Description of Model & Experimental Design • Septic shock is caused by hypotension secondary to vasodilation. […] The combination of a selective V2 receptor agonist, desmopressin, and a selective V1a receptor agonist models to some extent the non-selective V1a/V2 receptor agonist activity of vasopressin and other related compounds having non-selective activity.
Method: Sheep are surgically instrumented ahead of the study. After obtaining baseline data, they are anesthetized and insufflated with 48 breaths of cotton smoke and 10^11 colony forming units of Pseudomonas aeruginosa instilled into their airways via a tracheostomy. The sheep are then placed on a ventilator and awakened for the study. They are resuscitated with Ringer's solution to maintain left atrial and central venous pressures and hematocrit at baseline levels. If, despite fluid management, mean arterial pressure (MAP) falls by 10 mm Hg from baseline, a continuous intravenous infusion of AVP, the selective V1a receptor agonist, or the selective V1a receptor agonist+the selective V2 agonist desmopressin is initiated and titrated to keep MAP within this limit, except in a septic control group and in a non-septic sham group. Parameters measured include Mean Arterial Pressure (a measure of vasodilation/hypotension) and Fluid Balance (a measure of vascular leak).
Additional information about sepsis model and method available in Murakami K, Bjertnaes L T, Schmalstieg F C, McGuire R, Cox R A, Hawkins H K, Herndon D N, Traber L D, Traber D L (2002): A novel animal model of sepsis after acute lung injury in sheep. Crit. Care Med, 30:2083-2090.

rat V2 receptor (rV2R) [1] = target: T1, rat V2 receptor (rV2R) (Rattus norvegicus, UniProt Q00788); experiment: Agonist transcriptional reporter gene assay, rat V2 receptor; type: cell-based; conditions: rV2, HEK-293 reporter gene
T1 construct: expressed in transfected cells; host or cells: HEK-293
T1 sequence (Q00788 whole entry): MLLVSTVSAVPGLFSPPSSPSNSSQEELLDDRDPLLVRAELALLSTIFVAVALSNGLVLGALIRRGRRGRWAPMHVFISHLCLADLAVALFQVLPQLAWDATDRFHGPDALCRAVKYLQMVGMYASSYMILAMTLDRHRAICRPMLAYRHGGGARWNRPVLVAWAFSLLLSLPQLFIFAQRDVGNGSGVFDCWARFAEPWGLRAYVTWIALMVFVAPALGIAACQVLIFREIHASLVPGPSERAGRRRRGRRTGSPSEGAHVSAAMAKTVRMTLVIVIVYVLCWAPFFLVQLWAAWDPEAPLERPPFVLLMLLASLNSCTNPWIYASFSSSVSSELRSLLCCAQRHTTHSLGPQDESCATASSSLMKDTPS

human V2 receptor (hV2R) [2] = target: T2, human V2 receptor (hV2R) (Homo sapiens, UniProt P30518); experiment: Agonist transcriptional reporter gene assay, human V2 receptor; type: cell-based; conditions: hV2, HEK-293 reporter gene; for EC50: 5 hours
T2 construct: expressed in transfected cells; host or cells: HEK-293
T2 sequence (P30518 whole entry): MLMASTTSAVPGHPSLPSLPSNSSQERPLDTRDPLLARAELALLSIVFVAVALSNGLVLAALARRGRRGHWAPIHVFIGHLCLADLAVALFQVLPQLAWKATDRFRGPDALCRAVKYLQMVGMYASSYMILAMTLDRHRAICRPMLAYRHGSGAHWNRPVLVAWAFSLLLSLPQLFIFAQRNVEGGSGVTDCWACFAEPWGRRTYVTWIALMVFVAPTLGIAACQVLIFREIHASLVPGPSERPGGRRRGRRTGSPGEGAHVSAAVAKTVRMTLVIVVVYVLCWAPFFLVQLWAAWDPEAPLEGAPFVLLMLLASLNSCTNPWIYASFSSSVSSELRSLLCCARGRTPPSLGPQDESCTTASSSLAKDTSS

[3] = target: T3, human V1a receptor (hV1aR) (Homo sapiens, UniProt P37288); experiment: Agonist transcriptional reporter gene assay, human V1a receptor; type: cell-based; conditions: hV1a, HEK-293 reporter gene; for EC50: 5 hours
T3 construct: expressed in transfected cells; host or cells: HEK-293
T3 sequence (P37288 whole entry): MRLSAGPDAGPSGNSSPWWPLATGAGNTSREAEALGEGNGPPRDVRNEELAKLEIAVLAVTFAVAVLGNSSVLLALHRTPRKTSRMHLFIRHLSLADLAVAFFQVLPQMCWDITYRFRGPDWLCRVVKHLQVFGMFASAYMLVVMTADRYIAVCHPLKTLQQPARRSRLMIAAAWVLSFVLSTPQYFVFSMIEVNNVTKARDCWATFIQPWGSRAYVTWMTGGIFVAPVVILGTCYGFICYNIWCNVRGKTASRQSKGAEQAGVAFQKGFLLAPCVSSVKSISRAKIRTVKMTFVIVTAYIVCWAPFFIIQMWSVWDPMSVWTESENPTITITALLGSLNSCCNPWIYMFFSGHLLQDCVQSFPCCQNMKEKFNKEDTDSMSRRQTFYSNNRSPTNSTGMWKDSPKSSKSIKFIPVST

rat V1a receptor (rV1aR) [4] = target: T4, rat V1a receptor (rV1aR) (Rattus norvegicus, UniProt P30560); experiment: Agonist transcriptional reporter gene assay, rat V1a receptor; type: cell-based; conditions: rV1a, HEK-293 reporter gene
T4 construct: expressed in transfected cells; host or cells: HEK-293
T4 sequence (P30560 whole entry): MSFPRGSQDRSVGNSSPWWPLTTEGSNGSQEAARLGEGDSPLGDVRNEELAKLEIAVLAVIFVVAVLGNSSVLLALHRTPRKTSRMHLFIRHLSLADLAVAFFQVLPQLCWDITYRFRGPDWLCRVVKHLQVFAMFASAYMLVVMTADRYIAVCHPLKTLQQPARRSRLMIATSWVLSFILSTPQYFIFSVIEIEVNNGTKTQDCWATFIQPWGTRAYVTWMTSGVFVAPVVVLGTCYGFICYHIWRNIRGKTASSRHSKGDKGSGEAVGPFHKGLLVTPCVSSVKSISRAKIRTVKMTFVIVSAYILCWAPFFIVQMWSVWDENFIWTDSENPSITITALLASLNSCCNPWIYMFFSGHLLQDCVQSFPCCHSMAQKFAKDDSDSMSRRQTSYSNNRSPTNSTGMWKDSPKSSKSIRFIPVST

rat V2 receptor (rV2R) [5] = target: T1, rat V2 receptor (rV2R); experiment: Antagonist transcriptional reporter gene assay, rat V2 receptor; type: cell-based; conditions: rV2, HEK-293 reporter gene, vs AVP; for Ki: Ki calculated from IC50, read-out: Geomean Ki
Description: (§1) Agonist activity of compounds on the human V2 receptor (hV2R) and the rat V2 receptor (rV2R) was determined in a transcriptional reporter gene assay in which HEK-293 cells were transiently transfected with either the human or rat V2 receptor, and a reporter DNA containing cyclic-AMP responsive promoter elements regulating expression of firefly luciferase. See Castarion, M. J., Spevak, W., Biochem Biophys Res Commun.1994 Jan.
(§2) Antagonist activity of compounds on the human V2 receptor (hV2R) and the rat V2 receptor (rV2R) was determined in a transcriptional reporter gene assay as in section III.A; see Castañón, M. J. et al. supra. […] Ki values were calculated from IC50 values.

human V2 receptor (hV2R) [6] = target: T2, human V2 receptor (hV2R); experiment: Antagonist transcriptional reporter gene assay, human V2 receptor; type: cell-based; conditions: hV2, HEK-293 reporter gene, vs AVP
Description: as §1, §2

[7] = target: T3, human V1a receptor (hV1aR); experiment: Antagonist transcriptional reporter gene assay, human V1a receptor; type: cell-based; conditions: hV1a, HEK-293 reporter gene, vs AVP
Description: (§3) Agonist activity of compounds on the human V1a receptor (hV1aR) and the rat V1a receptor (rV 1 aR) was determined in a transcriptional reporter gene assay in which HEK-293 cells were transiently co-transfected with either the human or rat V1a receptor, and a reporter DNA containing intracellular calcium responsive promoter elements regulating expression of firefly luciferase.
(§4) Antagonist activity of compounds on the human V1a receptor (hV1aR) and the rat V1a receptor (rV 1 aR) was determined in a transcriptional reporter gene assay as in section III.A; see Boss, V. et al. supra. […] Ki values were calculated from IC50 values.

rat V1a receptor (rV1aR) [8] = target: T4, rat V1a receptor (rV1aR); experiment: Antagonist transcriptional reporter gene assay, rat V1a receptor; type: cell-based; conditions: rV1a, HEK-293 reporter gene, vs AVP; for Ki: Ki calculated from IC50, read-out: Geomean Ki
Description: as §3, §4

[9] = test system: venular microvessels in rat mesentery; experiment: Rat mesenteric post-capillary venule permeability (hydraulic conductivity Lp, PAF); conditions: PAF 10 nM
Description: We tested the hypothesis that the selective V2 receptor agonist desmopressin would potentiate the increase in microvessel permeability induced by platelet activating factor [PAF], an inflammatory mediator involved in sepsis.
Method: Individual venular microvessels in rat mesentery were cannulated and perfused with mammalian Ringer containing 10 mg/ml albumin to measure hydraulic conductivity (Lp) by the modified Landis technique. The vessels were then exposed to PAF (10 nM) with monitoring of hydraulic conductivity (Lp). The same vessels are then exposed to a selective V2 receptor agonist, desmopressin, followed by a second exposure to PAF with monitoring of hydraulic conductivity (Lp).
Additional information about microvascular permeability model and method available in Curry, FE, “The Measurement of Hydraulic Conductivity”, Microcirculatory Technology, Academic Press, 1986, pp 429-446.

[10] = Ki calculated from IC50, read-out: Geomean Ki

Molecule: NC(=O)CC[C@@H]1NC(=O)[C@H](Cc2ccccc2)NC(=O)[C@H](Cc2ccc(O)cc2)NC(=O)[C@@H](N)CSSC[C@@H](C(=O)N2CCC[C@H]2C(=O)N[C@@H](CCCN=C(N)N)C(=O)NCC(N)=O)NC(=O)[C@H](CC(N)=O)NC1=O [Arginine vasopressin, AVP, arginine vasopressin]
Fluid retention / vascular leak (fluid balance) (sheep model of sepsis): showed symptoms of vascular leak syndrome; also recorded: less effective
Mean arterial pressure (MAP) (sheep model of sepsis): efficacious in maintaining mean arterial pressure; also recorded: less effective
Efficacy (rat V2 receptor (rV2R) [1]): 100%

Efficacy (human V2 receptor (hV2R) [2]): 79%
EC50 (human V2 receptor (hV2R) [2]): 121 nM
Efficacy [3]: 66%
EC50 [3]: 124 nM
Molecule: NCCCC[C@H](NC(=O)[C@@H]1CCCN1C(=O)[C@@H]1CSSC[C@H](NC(=O)CNC(=O)CNC(=O)CN)C(=O)N[C@@H](Cc2ccc(O)cc2)C(=O)N[C@@H](Cc2ccccc2)C(=O)N[C@@H](CCC(N)=O)C(=O)N[C@@H](CC(N)=O)C(=O)N1)C(=O)NCC(N)=O [H-Gly3-LVP, terlipressin, terlipressin] (H-GGGCYFQNCPKG-NH2; disulfide 4-9)

Efficacy (rat V1a receptor (rV1aR) [4]): 99%
EC50 (rat V1a receptor (rV1aR) [4]; 5 hours): 0.2 nM
Efficacy (human V2 receptor (hV2R) [2]): 92%
EC50 (human V2 receptor (hV2R) [2]): 0.28 nM
Efficacy (rat V2 receptor (rV2R) [1]): 99%
EC50 (rat V2 receptor (rV2R) [1]; 5 hours): 1.11 nM
Efficacy [3]: 98%
EC50 [3]: 0.94 nM
Molecule: NCCCC[C@H](NC(=O)[C@@H]1CCCN1C(=O)[C@@H]1CSSC[C@H](N)C(=O)N[C@@H](Cc2ccc(O)cc2)C(=O)N[C@@H](Cc2ccccc2)C(=O)N[C@@H](CCC(N)=O)C(=O)N[C@@H](CC(N)=O)C(=O)N1)C(=O)NCC(N)=O [Lysine Vasopressin, LVP, lysine vasopressin]

Molecule: Cc1nc2c([nH]1)-c1ccccc1N(C(=O)c1ccc(NC(=O)c3ccccc3-c3ccccc3)cc1)CC2 [conivaptan]
Efficacy Antag (rat V2 receptor (rV2R) [5]): 97%
Efficacy Antag (human V2 receptor (hV2R) [6]): 92%
Efficacy Antag [7]: 81%
Efficacy Antag (rat V1a receptor (rV1aR) [8]): 99%

Molecule: NC(=O)CC[C@@H]1NC(=O)[C@H](Cc2ccccc2)NC(=O)[C@H](Cc2ccc(O)cc2)NC(=O)CCSSC[C@@H](C(=O)N2CCC[C@H]2C(=O)N[C@H](CCCN=C(N)N)C(=O)NCC(N)=O)NC(=O)[C@H](CC(N)=O)NC1=O [desmopressin]
Fluid retention / vascular leak (fluid balance) (sheep model of sepsis): decreased the effectiveness of the V1a agonist to the level of AVP
Mean arterial pressure (MAP) (sheep model of sepsis): decreased the effectiveness of the V1a agonist to the level of AVP
peak Lp with PAF in presence of desmopressin relative to peak Lp with PAF alone ([9]; desmopressin 10 pM for 40 minutes): not increased
peak Lp with PAF in presence of desmopressin relative to peak Lp with PAF alone ([9]; desmopressin 30 pM for 40 minutes, ±0.4 SEM, n=8): 2.1 fold
peak Lp with PAF in presence of desmopressin relative to peak Lp with PAF alone ([9]; desmopressin 100 pM for 40 minutes, ±0.9 SEM, n=5): 2.8 fold

Molecule: Cc1ccccc1C(=O)Nc1ccc(C(=O)N2CCCC(N(C)C)c3ccccc32)cc1 (stereo not drawn) [mozavaptan]
Efficacy Antag (rat V2 receptor (rV2R) [5]): 85%
Efficacy Antag (human V2 receptor (hV2R) [6]): 107%
Efficacy Antag [7]: 85%
Efficacy Antag (rat V1a receptor (rV1aR) [8]): 40%

Efficacy Antag (rat V2 receptor (rV2R) [5]): 100%
Ki (rat V2 receptor (rV2R) [5]): 0.6 nM
Efficacy Antag (human V2 receptor (hV2R) [6]): 109%
Ki (human V2 receptor (hV2R) [6]; [10]): 1.5 nM
Efficacy Antag [7]: 10%
Ki [7, 10]: > 950 nM
Efficacy Antag (rat V1a receptor (rV1aR) [8]): 6%
Ki (rat V1a receptor (rV1aR) [8]): > 338 nM
Molecule: CCOc1ccc2c(c1)C1(CCC(OCCN3CCOCC3)CC1)C(=O)N2S(=O)(=O)c1ccc(C(=O)NC(C)(C)C)cc1OC (stereo not drawn) [satavaptan]

Efficacy Antag (rat V2 receptor (rV2R) [5]): 102%
Ki (rat V2 receptor (rV2R) [5]): 3.3 nM
Efficacy Antag (human V2 receptor (hV2R) [6]): 97%
Efficacy Antag [7]: 101%
Efficacy Antag (rat V1a receptor (rV1aR) [8]): 26%
Ki (rat V1a receptor (rV1aR) [8]): > 338 nM
Molecule: Cc1ccccc1C(=O)Nc1ccc(C(=O)N2CCCC(O)c3cc(Cl)ccc32)c(C)c1 (stereo not drawn) [tolvaptan]

Molecule: [Pmp1,D-Ile2,Ile4,Arg8]vasopressin [[Pmp1, D-Ile2, Ile4]AVP]
Efficacy Antag (rat V2 receptor (rV2R) [5]): 97%

Molecule: [Pmp1,D-Ile2,Ile4,Arg8]vasopressin-(1-8)-OH [[Pmp1, D-Ile2, Ile4]AVP-(1-8)-OH]
Efficacy Antag (rat V2 receptor (rV2R) [5]): 105%

Molecule: ornithine vasopressin [[Orn8] Vasopressin, OVP]
Efficacy (rat V2 receptor (rV2R) [1]): 111%
